This note sets out measurements from EPA's ToxValDB 9.5.

Broadly, the NOAEL is the highest dose or exposure tested at which no adverse effect was seen. The term LOAEL denotes the lowest tested level that showed an adverse finding.

Some results are limits rather than exact numbers.

Series [1] concerns Rattus norvegicus.
Series [2] relates to Rattus norvegicus. Conditions: oral.
The subject of series [3] is Rattus norvegicus. The source holds these as a separate data set.
The test system of series [4] is Rattus norvegicus. The note with it: Hershberger; duration: 10 days; oral; gavage; Sprague-Dawley; active + Antiandrogenic + anti-androgenic.
The test system of series [5] is Rattus norvegicus. The note with it: oral, gavage, Sprague-Dawley.
The mark [6] stands for this setting: short-term, duration: 4 weeks, oral, gavage, F, Sprague-Dawley.
Setting [7] is: short-term, duration: 4 weeks, oral, gavage, M, Sprague-Dawley.
The mark [8] stands for this setting: reproduction developmental, duration: 7 days, F, generation: P0, P0: Developmental: Whole Body: Litter Size + P0: Developmental: Whole Body: Male Pups per Pups Sexed.
Where [9] appears, read: short-term, duration: 21 days, M, Endocrine: Multi-Organ: Estradiol, Serum + Endocrine: Multi-Organ: Follicular Stimulating Hormone (FSH), Serum + Endocrine: Multi-Organ: ….
Setting [10] is: short-term, duration: 21 days, M, Endocrine: Multi-Organ: Estradiol, Serum + Endocrine: Multi-Organ: Follicular Stimulating Hormone (FSH), Serum + Metabolic: Multi-Organ: ….
The mark [11] stands for this setting: short-term, duration: 21 days, M, Endocrine: Multi-Organ: Testosterone (T), Serum + Reproductive: Epididymis: Epididymis Weight, Absolute + Reproductive: Testis: Testis ….
The mark [12] stands for this setting: short-term, duration: 28 days, gavage, M, Sprague-Dawley, Clinical Observation: Salivation Spontaneous locomotion decrease, Respiratory rate decrease.

On to `C1CO1` [Ethylene oxide], for which, in the series on Rattus norvegicus [1] (developmental, duration: 364 days, inhalation, whole body, M/F, CD, developmental), the NOAEL came out at 18 mg/m3.

For `C=C(C)C` [Isobutene], the NOAEL in the series with Rattus norvegicus [2] (short-term, duration: 28 days, gavage, Sprague-Dawley) worked out at 149 mg/kg-day; with Rattus norvegicus [3] (reproduction developmental, duration: 17 days, inhalation, F, Wistar), 18400 mg/m3; in the series on Rattus norvegicus [3] (setting [6]) it was 14.9 mg/kg-day; in the series with Rattus norvegicus [3] (setting [7]), 14.9 mg/kg-day; in the series on Rattus norvegicus [3] (subchronic, duration: 13 weeks, inhalation, F, Sprague-Dawley), 18400 mg/m3; in the series on Rattus norvegicus [3] (subchronic, duration: 13 weeks, inhalation, M, Sprague-Dawley) it was 18400 mg/m3. Moreover, the lowest-observed-adverse-effect level (LOAEL) in the series with Rattus norvegicus [3] (setting [6]) and with Rattus norvegicus [3] (setting [7]) was 149 mg/kg-day in each case.

Regarding `CCCCC(CC)COC(=O)c1ccccc1C(=O)O` (centres undefined) [MEHP], in the series with Rattus norvegicus [4], the LOEL came out at 50 mg/kg-day and the NOEL turned out to be 10 mg/kg-day.

Take `NS(=O)(=O)C(F)(F)C(F)(F)C(F)(F)C(F)(F)C(F)(F)C(F)(F)C(F)(F)C(F)(F)F` [Perfluorooctanesulfonamide]: the NOAEL in the series on Rattus norvegicus [1] (acute, duration: 1 days, oral, gavage, M, Sprague-Dawley, Hepatic: No alterations in liver weight) was found to be 5 mg/kg-day.

With `O=C(O)C(F)(F)C(F)(F)C(F)(F)C(F)(F)C(F)(F)C(F)(F)C(F)(F)C(F)(F)C(F)(F)C(F)(F)C(F)(F)C(F)(F)F` [Perfluorotridecanoic acid], the NOAEL in the series with Rattus norvegicus [5] (developmental, duration: 7 days, M, generation: F1, F1: Developmental: Testis: Fetal Leydig cell number + F1: Developmental: Trunk: Anogenital Distance + F1: Developmental: Whole Body: Pup …) was determined as 5 mg/kg-day; in the series on Rattus norvegicus [5] (setting [8]) it was 5 mg/kg-day; in the series with Rattus norvegicus [5] (reproduction developmental, duration: 7 days, F, generation: P0, P0: Whole Body: Whole Body: Clinical Observations, Unspecified + P0: Whole Body: Whole Body: Maternal Body Weight) it was 10 mg/kg-day; in the series on Rattus norvegicus [5] (setting [9]), 1 mg/kg-day; in the series with Rattus norvegicus [5] (setting [10]) it was 5 mg/kg-day; in the series on Rattus norvegicus [5] (setting [11]), 1 mg/kg-day. The NOAEL in the series on Rattus norvegicus [5] (short-term, duration: 21 days, M, Whole Body: Whole Body: Body Weight Change + Whole Body: Whole Body: Body Weight, Absolute + Whole Body: Whole Body: Clinical Observation …) was 10 mg/kg-day. The LOAEL came out at 10 mg/kg-day in the series on Rattus norvegicus [5] (setting [8]); 1 mg/kg-day with Rattus norvegicus [5] (reproduction developmental, duration: 7 days, F, generation: P0, P0: Developmental: Whole Body: Litter Size + P0: Developmental: Whole Body: Male Pups per Pups Sexed + P0: Reproductive: Whole Body: Birth …); 1 mg/kg-day in the series with Rattus norvegicus [5] (reproduction developmental, duration: 7 days, F, generation: P0, P0: Reproductive: Whole Body: Birth rate); 1 mg/kg-day in the series with Rattus norvegicus [5] (reproduction developmental, duration: 7 days, M, generation: F1, F1: Endocrine: Multi-Organ: Testosterone (T), Serum); 5 mg/kg-day in the series on Rattus norvegicus [5] (setting [9]); 10 mg/kg-day with Rattus norvegicus [5] (setting [10]). For the same compound, in the series on Rattus norvegicus [5] (setting [11]), the lowest-observed-adverse-effect level (LOAEL) is 5 mg/kg-day.

For the compound `[Sn]` [Tin], the no-observed-adverse-effect level (NOAEL) in the series with Rattus norvegicus [1] (subchronic, duration: 13 weeks, oral, diet, M/F, Wistar, hematological) came to 32 mg/kg-day.

As for `CCCCCCCC[Si](OCC)(OCC)OCC` [Triethoxyoctylsilane], the NOAEL in the series with Rattus norvegicus [2] (short-term, duration: 28 days, diet, Fischer 344) was 10000 ppm; with Rattus norvegicus [2] (short-term, duration: 29 days, gavage, M/F, Sprague-Dawley, Clinical Observation: Soiling of the head (nose, chin, muzzle) + Body Weight Changes: Mean body weight decrease, Weight gain decrease + Food…), 300 mg/kg-day.

`CO[Si](CCCOCC1CO1)(OC)OC` (centres undefined) [Trimethoxy[3-(oxiran-2-ylmethoxy)propyl]silane]: the NOAEL in the series on Rattus norvegicus [2] (short-term, duration: 28 days, gavage, Sprague-Dawley, Deaths: None (there were dead animals due to intubation error)) is above 1000 mg/kg-day.

Take `O=P(OCCCl)(OCCCl)OCCCl` [Tris(2-chloroethyl) phosphate]: in the series on Rattus norvegicus [2] (setting [12]), the NOAEL came to 400 mg/kg-day and the NOEL worked out at 80 mg/kg-day.

As for `S=c1[nH]c(=S)[nH]c(=S)[nH]1` [Trithiocyanuric acid], the NOEL in the series with Rattus norvegicus [2] (subchronic, gavage, M, Sprague-Dawley, Deaths + Clinical Observation: Black area of the pinna Nodule of the tail Dark purple distally of the tail Reddish urine + Body Weight …) was below 62.5 mg/kg-day.

In the case of `C=CN1CCCC1=O` [Vinylpyrrolidone], the no observed adverse effect level (NOAEL) was 4.56 mg/kg-day with Rattus norvegicus [2] (subchronic, duration: 90 days, drinking water, M/F, Wistar, Water Consumption: decrease + Blood Chemistry: TP decrease, Glob decrease, Alb decrease + Absolute Organ Weight: Kidney increase) and 60 mg/kg-day in the series with Rattus norvegicus [2] (subchronic, duration: 90 days, gavage, M/F, Wistar, Food Consumption: decrease + Water Consumption: increase + Hematology: PLT increase + Absolute Organ Weight: Liver increase + Histopathology…).

In the series on Rattus norvegicus [2] (subchronic, gavage, Sprague-Dawley), `[O-][n+]1ccccc1[S-].[O-][n+]1ccccc1[S-].[Zn+2]` [Zinc pyrithione] yielded an NOEL of 1 mg/kg-day.

As to `CC1CC(C)(C)CC(c2ccc(O)cc2)(c2ccc(O)cc2)C1` (centres undefined) [bisphenol TMC], the NOEL in the series with Rattus norvegicus [2] (short-term, duration: 28 days, gavage, M/F, Body Weight Changes: Weight gain decrease + Food Consumption: decrease + Water Consumption: increase + Urinalysis: Protein increase + …) is below 100 mg/kg-day.

For `O=C1CCCO1` [gamma-Butyrolactone], the NOEL with Rattus norvegicus [2] (subchronic, duration: 13 weeks, gavage, M/F, Fischer 344, Clinical Observation: Slight inactivity Recumbent + Body Weight Changes: decrease + Absolute Organ Weight: Thymus decrease + Relative Organ …) is 112 mg/kg-day.

In the case of `Cc1ccc(S(=O)(=O)Cl)cc1` [p-Toluenesulfonyl chloride], the NOAEL in the series on Rattus norvegicus [2] (subchronic, duration: 51 days, gavage, M, Sprague-Dawley, Clinical Observation: Soft stool Staining around anorectal region Staining around mouth Staining around nose(blood like) Loss of hair around…) is below 150 mg/kg-day.
